Data set [1] concerns OC43. Description: OC43 infection of A549 cells, viral nucleoprotein staining. In kind it is cell-based, human beta coronavirus OC43. The following applies: for EC50: Betacoronavirus 1, OC43, A549, 96 h, read-out: EC50 against OC43 infection; for Inhibition of OC43 infection, dose-response validation (in words): A549 cells.
The test system of data set [2] is 3CL. Set-up: method as in doi:10.1101/2020.08.29.272864. Particulars: read-out: Previously reported IC50 in cells; cited from earlier work.
For data set [3] the following is noted: mouse, in vivo.
Data set [4] deals with multiple picornaviruses. Description: Replication of picornaviruses. Particulars: fig. S8B. Format: cell-based.
In data set [5] the target is T1, PLpro (Severe acute respiratory syndrome coronavirus 2, UniProt P0DTD1).
T1 construct: the papain-like protease, PLpro, a domain within nsp3
Description: PLpro activity assay. In kind it is biochemical, SARS-CoV-2. The following applies: fig. S7.

The subject of data set [6] is SARS-CoV-2 (nCoV/Washington/1/2020). Format: in vivo, mice.
The conditions of data set [7]: feline model of asthma; cited from earlier work.
The subject of data set [8] is other RNA viruses. Description: Replication of other RNA viruses. Format: cell-based.
Data set [9] addresses 3C protease (Coxsackievirus B3, UniProt P03313). Format: cell-based, picornaviruses.
The target of data set [10] is T2, SARS-CoV-2 3CL (Severe acute respiratory syndrome coronavirus 2, UniProt P0DTD1).
T2 construct: the main viral protease, known as Mpro, 3CLpro, or nonstructural protein 5 (nsp5); made in house
In words: Fluorescence-based 3CL enzyme activity assay in vitro (enzyme kinetics, Dixon plot). Format: biochemical. The following applies: range of substrate and inhibitor concentrations, SigmaPlot fit.
Description: Individual measurements are shown as semitransparent gray circles. Error bars depict means ± SEM. […] Individual measurements are shown as circles. […] RFU, relative fluorescence units.
To test this, we measured the rate of the 3CL enzymatic reaction in vitro using a fluorescence-based enzyme activity assay ([29]). We measured the rate of 3CL activity in a range of substrate and inhibitor concentrations and fitted the data to equations describing different modes of inhibition using SigmaPlot Enzyme Kinetics Module 1.3 (see methods).

The mark [11] stands for this setting: 25 mg kg−1 twice a day, day six.

For orientation: EC50 means the concentration at which the effect is half-maximal. Usually IC50 stands for the concentration that inhibits the measured activity by half.

Chain of 3C protease (P03313 1541-1723 limits assumed): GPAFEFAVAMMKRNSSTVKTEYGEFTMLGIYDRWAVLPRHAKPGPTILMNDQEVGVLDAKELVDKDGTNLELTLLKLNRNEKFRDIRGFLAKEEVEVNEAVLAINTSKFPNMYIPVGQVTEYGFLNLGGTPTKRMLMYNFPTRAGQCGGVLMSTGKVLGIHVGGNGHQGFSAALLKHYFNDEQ

As to `COc1cc2c(Oc3ccc4[nH]c(C)cc4c3F)ncnc2cc1OCCCN1CCCC1` [Cediranib], the EC50 in [1] was 0.52 µM.
As to `Cc1ccc(O)c([C@H](CCN(C(C)C)C(C)C)c2ccccc2)c1` [tolertodine], in [1], the “Inhibition of OC43 infection, dose-response validation (in words)” value is reported as “weak inhibitors of OC43 infection”.
In the case of `CS(=O)(=O)CCNCc1ccc(-c2ccc3ncnc(Nc4ccc(OCc5cccc(F)c5)c(Cl)c4)c3c2)o1` [Lapatinib], in [1], the EC50 worked out at 3.1 µM.
Still for that read-out and setting: next, `COc1ccc2cc1Oc1ccc(cc1)C[C@H]1c3c(cc4c(c3Oc3cc5c(cc3OC)CCN(C)[C@@H]5C2)OCO4)CCN1C` [Cepharanthine]: 0.77 µM.
For `O=C(Oc1cncc(Cl)c1)c1cccc2[nH]ccc12` [GRL-0496], the IC50 in data set [2] was 5 µM.
On to `Cc1ccc(NC(=O)c2ccc(CN3CC[C@H](N(C)C)C3)c(C(F)(F)F)c2)cc1Nc1nccc(-c2cncnc2)n1` [Bafetinib], for which the EC50 in [1] stood at 2.1 µM.
Still for that read-out and setting: then `CCCCOC(=O)c1ccc(N)cc1` [Butamben], with 3.1 µM.
On the same count and under the same terms, next, `CCC(CC)COC(=O)[C@H](C)N[P@](=O)(OC[C@H]1O[C@@](C#N)(c2ccc3c(N)ncnn23)[C@H](O)[C@@H]1O)Oc1ccccc1` [Remdesivir]: 0.96 µM.
On the same count and under the same terms, then `OCCN1CCN(CCC=C2c3ccccc3Sc3ccc(C(F)(F)F)cc32)CC1` [Flupenthixol], with 1.8 µM; and `COC(=O)N[C@H](C(=O)N1CCC[C@H]1c1nc(-c2ccc3c(c2)O[C@@H](c2ccccc2)n2c-3cc3cc(-c4c[nH]c([C@@H]5CCCN5C(=O)[C@@H](NC(=O)OC)C(C)C)n4)ccc32)c[nH]1)C(C)C` [Elbasvir], with 0.17 µM.
In the case of `COC[C@H]1C[C@@H](c2nc(-c3ccc4c(c3)COc3cc5c(ccc6nc([C@@H]7CC[C@H](C)N7C(=O)[C@@H](NC(=O)OC)C(C)C)[nH]c65)cc3-4)c[nH]2)N(C(=O)[C@H](NC(=O)OC)c2ccccc2)C1` [Velpatasvir], the EC50 in data set [1] worked out at 2 µM.
As to `Cc1ccc(NC(=O)c2ccc(CN3CCN(C)CC3)cc2)cc1Nc1nc(-c2cccnc2)cs1` [Masitinib], the Tolerability of dose entry in data set [3] is listed as “well tolerated, with minimal weight loss”. In addition, the “Effect on replication of picornaviruses” value in data set [4] was “effective in blocking the replication of multiple picornaviruses”. In addition, in [5], the “Effect on PLpro activity” value was “no effect”. Also, in data set [6] (setting [11]), the “Reduction in viral titers in the lungs and nose (log)” value is listed as “greater than two-log reduction”; the “Reduction of the viral load” value is more than 99%. Besides, in data set [6] (day six), the “Concentrations of proinflammatory cytokines (such as IL-1β, IFN-γ) in the lungs” value was “significantly reduced”. In addition, the Overall lung pathology entry in [6] (day six, blindly scored 0 to 4) is “improved overall lung pathology”. Moreover, in data set [6] (mouse, in vivo), the “Reduction in viral titers in the lungs” value was more than 200 fold and the “Reduction in viral titers in the nose” value was more than 200 fold. In data set [6] (up to 10 days), the “Survival, weight loss and clinical scores” value was “improvements in survival”. For the same compound, the “Airway inflammation and lung functions” value in [7] is “decrease airway inflammation and improve lung functions”. For the same compound, the “Effect on replication of other RNA viruses” value in [8] is listed as “not the replication of other RNA viruses”. Moreover, the EC50 in [1] came to 2.1 µM. Moreover, in [9], the “Effect on 3C protease activity” value is listed as “significantly inhibited the activity of the 3C protease”. The “Mode of 3CL inhibition” value in [10] is “competitive inhibition gave the best fit”.
For the compound `C[C@@H]1[C@H](O)[C@@H](C)/C=C/C=C/C=C/C=C/C=C/C=C/C=C/[C@H](O[C@@H]2O[C@H](C)[C@@H](O)[C@H](N)[C@@H]2O)C[C@@H]2O[C@](O)(C[C@@H](O)C[C@@H](O)[C@H](O)CC[C@@H](O)C[C@@H](O)CC(=O)O[C@H]1C)C[C@H](O)[C@H]2C(=O)O` [Amphotericin B], the EC50 in data set [1] worked out at 0.19 µM.
For `CN(C)CCCN1c2ccccc2CCc2ccc(Cl)cc21` [Clomipramine], the “OC43 infection in drug-repurposing screen” value in data set [1] (10 μM, 4 days) is given as “top hits”.
Take `CCCCOC(=O)c1ccc(O)cc1` [Butylparaben]: in [1], the EC50 was found to be 1.7 µM.
In the case of `O=C(c1ccc(OCCN2CCCCC2)cc1)c1c(-c2ccc(O)cc2)sc2cc(O)ccc12` [Raloxifene], in data set [1], the EC50 is 2.7 µM.
`CC[C@H]1OC(=O)[C@H](C)[C@@H](O[C@H]2C[C@@](C)(OC)[C@@H](O)[C@H](C)O2)[C@H](C)[C@@H](O[C@@H]2O[C@H](C)C[C@H](N(C)C)[C@H]2O)[C@](C)(O)C[C@@H](C)C(=O)[C@H](C)[C@@H](O)[C@]1(C)O` [erythromycin]: the “Inhibition of OC43 infection, dose-response validation (in words)” value in data set [1] is reported as “failed validation”.
The same measure, in the same setting: then `Cc1ccc(NC(=O)c2ccc(CN3CCNCC3)cc2)cc1Nc1nc(-c2cccnc2)cs1` [AB3280], with “maintains its antiviral activity”.

Source of the values: paper PMC8809056 (Science (New York, N.y.), 2021).
